Data from patent publication US20110098295A1, “METHODS OF TREATING ANXIETY, ITCHING AND PSYCHIATRIC DISORDERS” (priority 2009, published 2011).

What was measured:
mice = assay: Behavioral itching test (scratching induced by intradermal compound 48/80); assay type: in vivo
From the text: Data are presented as mean±SEM.
Mutant KO mice and littermate wild-type mice were used in the behaviour experiments. Mice were shaved at the back of the neck where intradermal injections of compound 48/80, which releases histamine from the mast cells, were then given.

[1] = system: adenylyl cyclase subtype 8; assay: Biochemical screening test for AC8 inhibitors (cAMP assay in HEK293 cells expressing ACs); assay type: cell-based; conditions: 100 μM
Description: (§1) For AC8 expression vector pcDNA3-AC1 transfection, HEK293 cells were plated onto 60-mm-diameter dishes at a density of 1×10^6 per plate, grown overnight and transfected with pcDNA3-AC1 (0.8 μg DNA per plate) by Lipofectamine 2000 (Invitrogen). Stable transfected clones were selected in culture media containing 0.8 mg/ml G418 (Invitrogen, CA) and maintained in this media. For transient expression of other AC isoforms in HEK293 cells, HEK293 cells were plated in 96 well tissue culture dishes and transfected with plasmids for AC5, respectively, experiments were carried out at 48 h after transfection.
(§2) The HEK293 cells expressing ACs were harvested and lysed in 0.1 M HCl after different treatments. Direct cAMP measurements were performed using the direct cAMP enzyme immunoassay kit (Assay Designs, MI) and optical density values were measured at 405 nm by the microplate reader. Phosphodiesterase was inhibited by the addition of 1 mM 3-isobutyl-1 methylxanthine (Sigma, Mo.) to cultures.
The HEK293 cells were subcultured into 96-well plates in the absence of antibiotics and grown overnight and transfected with the pGL3-CRE-firefly luciferase and pGL3-CMV-Renilla luciferase constructs (0.25 μg DNA per well) by Lipofectamine 2000 reagent. The transfected cells were incubated overnight, and media were changed to DMEM containing 10% fetal bovine serum. After 48 h, the cells were treated with 10 μM forskolin, 10 μM A23187 and 2 mM CaCl2, or a combination of 10 μM forskolin, 10 μM A23187 and 2 mM CaCl2, in the absence or presence of each chemical tested at the concentration of 100 μM. At the end of 6 hours, incubation cells were harvested and luciferase activity was assayed by Dual-Luciferase Reporter Assay System (Promega). Relative light units were measured using a SIRIUS luminometer.
A set of biochemical screening tests were carried out to search for potential selective AC8 inhibitors. cAMP assay, gene-activation (pCREB) assay in AC8 expressed cell lines, as well as integrative physiological experiments were employed to screen for potential AC8 inhibitors. The effect of Compound A and B on AC8 was determined.

[2] = molecular target: T1, adenylyl cyclase subtype 5 (Homo sapiens, UniProt O95622); assay: Biochemical screening test, AC5 transiently expressed in HEK293 cells; assay type: cell-based; conditions: read-out: Percent Inhibition AC5
T1 construct: expressed in transfected cells; host or cells: HEK293 (transient, 48 h)
Description: as §1, §2
The HEK293 cells were subcultured into 96-well plates in the absence of antibiotics and grown overnight and transfected with the pGL3-CRE-firefly luciferase and pGL3-CMV-Renilla luciferase constructs (0.25 μg DNA per well) by Lipofectamine 2000 reagent. […] Relative light units were measured using a SIRIUS luminometer.

wild-type mice = assay: Open field test, animal model of behavioral anxiety; assay type: in vivo; design: anti-anxiety effects in the open field test: dose or concentration left out as unconfirmed
From the text: Animals were placed in the open field immediately after an IP injection. […] B) Mice injected with AC8 inhibitor (filled circles) traveled more than control mice injected with saline (open circles). *P<0.05
A round, green, plastic tub with diameter 43.5 cm was used to create an open arena for the mouse to travel. The floor was made of clear Plexiglas. Each trial consisted of exposing the mouse to a bright light (685 lux) in the arena for the first minute, followed immediately by exposing the mouse only to dim light (1 lux) for another minute. The mouse's movements were captured using video camera tracking software (Ethovision, Noldus Va.) and the distance from the border of the arena, the distance from the centre of the arena, and the total distance traveled were measured. The percent difference in these factors between bright and dim light periods were also calculated. After each 2 min testing session, the mouse was removed and placed back in its home cage and the arena was cleaned with 70% ethanol solution.

T1 sequence (O95622 whole entry): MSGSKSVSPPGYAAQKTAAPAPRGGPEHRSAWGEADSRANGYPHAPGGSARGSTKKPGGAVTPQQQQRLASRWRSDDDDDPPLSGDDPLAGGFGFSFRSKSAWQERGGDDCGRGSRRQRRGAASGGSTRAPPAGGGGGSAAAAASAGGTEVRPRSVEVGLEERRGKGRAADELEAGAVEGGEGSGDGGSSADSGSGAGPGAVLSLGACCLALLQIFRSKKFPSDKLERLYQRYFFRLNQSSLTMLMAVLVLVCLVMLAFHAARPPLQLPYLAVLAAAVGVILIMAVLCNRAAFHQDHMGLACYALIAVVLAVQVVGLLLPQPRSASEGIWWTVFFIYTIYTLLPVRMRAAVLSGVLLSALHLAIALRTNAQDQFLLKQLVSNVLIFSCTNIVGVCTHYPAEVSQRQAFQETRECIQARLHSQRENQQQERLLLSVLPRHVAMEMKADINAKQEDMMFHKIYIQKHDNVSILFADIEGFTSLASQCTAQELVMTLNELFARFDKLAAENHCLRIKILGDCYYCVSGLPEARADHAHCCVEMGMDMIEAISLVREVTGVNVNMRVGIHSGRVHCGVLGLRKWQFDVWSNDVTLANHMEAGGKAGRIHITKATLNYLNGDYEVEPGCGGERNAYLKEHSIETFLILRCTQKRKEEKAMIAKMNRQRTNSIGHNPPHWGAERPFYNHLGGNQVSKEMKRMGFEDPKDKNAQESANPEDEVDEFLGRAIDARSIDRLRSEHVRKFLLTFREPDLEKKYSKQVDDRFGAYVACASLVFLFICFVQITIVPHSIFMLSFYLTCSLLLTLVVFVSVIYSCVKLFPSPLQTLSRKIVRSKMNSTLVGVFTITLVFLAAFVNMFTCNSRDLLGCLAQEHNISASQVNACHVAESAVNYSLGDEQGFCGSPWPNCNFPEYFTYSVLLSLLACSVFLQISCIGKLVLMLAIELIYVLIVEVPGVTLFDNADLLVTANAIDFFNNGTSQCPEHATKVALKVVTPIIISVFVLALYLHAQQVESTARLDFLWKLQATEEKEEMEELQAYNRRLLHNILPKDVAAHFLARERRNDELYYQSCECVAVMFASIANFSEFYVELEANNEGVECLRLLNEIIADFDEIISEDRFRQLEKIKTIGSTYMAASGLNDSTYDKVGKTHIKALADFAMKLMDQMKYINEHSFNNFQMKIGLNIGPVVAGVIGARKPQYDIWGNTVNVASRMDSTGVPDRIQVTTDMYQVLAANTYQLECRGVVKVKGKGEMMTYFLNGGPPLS

| Compound | total scratching responses induced by intradermal compound 48/80 (100 μg/50 μl) (mice; 5 mg/kg i.p., n=6 mice vs wild-type mice n=7, P<0.05) | anti-itching effects in the itching test (mice; systemic injection 5 mg/kg) | Percent Inhibition AC8 [1] | inhibition of AC8 activity [1] | inhibition at 100 µM [2] | ambulatory counts in open field (wild-type mice; 5 mg/kg, i.p., placed in open field immediately after injection, vs saline, n=6, P<0.05) | distance traveled in open field (wild-type mice; 5 mg/kg, i.p., vs saline, P<0.05) | anti-anxiety effects in the open field test (wild-type mice; systemic injection, n=7 mice) |
| --- | --- | --- | --- | --- | --- | --- | --- | --- |
| Cc1ccc(OCCn2c(S)nc3c(N)ncnc32)cc1 [Compound A, 6-amino-9-(2-p-tolyloxy-ethyl)-9H-purine-8-thiol] | significantly reduced | significant anti-itching effects | 88 ± 2% inhibition | significant inhibition | 25 ± 4% | significantly more ambulatory counts | traveled more | significant anti-anxiety effects |
| c1nc(N2CCOCC2)c2nc[nH]c2n1 [Compound B, 4-(9H-purin-6-yl)morpholine] |  |  | 86 ± 2% | significant inhibition |  |  |  |  |
